Reference: patent US20170112741A1, “AGENT FOR AMELIORATING SKIN SYMPTOM, HAIR GROWTH AGENT OR SLIMMING AGENT” (GOLDCREST MEDICINE INSTITUTE CO., LTD., priority 2014, published 2017)

Columns and labels:
[1] = tested on: moles; assay: Effect of oral administration on 4 moles on left ankle and 4 small moles around them; format: in vivo, human; conditions: for Color and shape of mole No. 4, left ankle: Jun. 20, 2013: brown circular
Text: On the part slightly above the left ankle, 4 black moles were observed. From a direction of the little toe of the left foot, there were 3 black circular moles having a similar diameter ranging from about 3.7 mm to about 4 mm, present almost in one line with an interval of 2.4 cm and 2.6 cm. […]
At a position 6 mm above the second mole, there was a red oval mole of 1 mm×1.7 mm. […]

[2] = tested on: head hair / bald area; assay: Hair growth on the head of patient A, photographs before and after oral cabergoline; format: in vivo, human
Text: According to the photograph (1) of patient A (FIG. 1) taken at a restaurant during travel in Shonai region of Yamagata Prefecture on Sep. 16, 2010, the head of patient A from the upper forehead to the crown was quite bald. Only a small amount of hair was left right above the forehead. Patient A was […] at the time of taking the photo. Since the cabergoline administration was started on Jun. 20, 2013, patient A was […] at that time, which was 2 years and 9 months after taking the photograph (1), and thus, aging further progressed so that the hair became thinner and the hair loss progressed.
The image of the occipital region of patient A taken from the back side on Sep. 16, 2010, is shown in the photograph (2) (FIG. 2).
In the period from Jun. 20, 2013 (Thursday) to Jul. 15, 2013 (Monday), one tablet of 0.25 mg cabergoline was orally administered twice per week, on Monday and Thursday, and thus a total of 2 mg of cabergoline was administered over one month. From July 18, the administration of cabergoline was changed from two tablets per week to one tablet per week. The total dose of cabergoline administered from Jul. 18, 2013 to Jan. 20, 2014 was about 6 mg, and thus, the total amount of cabergoline administered after the start of administration was calculated to be 8 mg.
Images of the frontal region and the occipital region of patient A taken on Feb. 27, 2014 are shown as photograph (3) (FIG. 3) and photograph (4) (FIG. 4), respectively.

[3] = Jan. 17, 2014 (after 210 days), listed as novel skin treatment agent
[4] = Jan. 17, 2014 (after 210 days), size 1.8 × 2.2 wrapped over two grid lines, Jun. 20, 2013: 3.9 mm
[5] = Mar. 20, 2014 (after 272 days), vague border, Jun. 20, 2013: black circular
[6] = Feb. 27, 2014 vs Sep. 16, 2010, oral cabergoline since Jun. 20, 2013

Compound: C=CCN1C[C@H](C(=O)N(CCCN(C)C)C(=O)NCC)C[C@@H]2c3cccc4[nH]cc(c34)C[C@H]21 [cabergoline]
- Color and shape of mole No. 1, left ankle ([1]; Dec. 4, 2013 (after 166 days), Jun. 20, 2013: black circular): a red circular mole
- Diameter of mole No. 1, left ankle ([1]; Dec. 4, 2013 (after 166 days), Jun. 20, 2013: black circular, diameter 3.7 mm): 1.2 mm. The color
- Color and shape of mole No. 4, left ankle ([1]; Dec. 4, 2013 (after 166 days)): yellow-brown circular mole
- Diameter of mole No. 4, left ankle ([1]; Dec. 4, 2013 (after 166 days), Jun. 20, 2013: brown circular mole of 2.0 × 1.8 mm): with a diameter of 1.0 mm,
- Diameter of the 2 red moles among the small moles above mole No. 3 ([1]; Dec. 4, 2013 (after 166 days), Jun. 20, 2013: diameter 1.5 mm): diameter of 0.5 mm.
- Color and shape of mole No. 3, left ankle ([1]; Dec. 4, 2013 (after 166 days), cell continues: brown rectangular mole, vague border, Jun. 20, 2013: black circular): The mole shrunk to a blackish
- Color of mole No. 2, left ankle ([1]; Dec. 4, 2013 (after 166 days), oval, vague border, Jun. 20, 2013: black circular): faded to light brown.
- State of the 3 small moles above mole No. 3 ([1]; Jan. 17, 2014 (after 210 days)): completely disappeared
- State of the small mole above mole No. 2 ([1]; Jan. 17, 2014 (after 210 days)): completely disappeared
- Diameter of mole No. 1, left ankle ([1]; Jan. 17, 2014 (after 210 days), Jun. 20, 2013: 3.7 mm): 1.0 mm.
- Color and shape of mole No. 1, left ankle ([1]; Jan. 17, 2014 (after 210 days), Jun. 20, 2013: black circular): Red circular mole
- Color and shape of mole No. 4, left ankle ([1]; Jan. 17, 2014 (after 210 days)): Light brown line-shaped
- State of the 3 small moles above mole No. 3 [1, 3]: The upper 3 moles disappeared.
- State of the small mole above mole No. 2 [1, 3]: The upper mole disappeared.
- Length of mole No. 2, left ankle [1, 4]: 2.2 mm with a vague border.
- Width of mole No. 2, left ankle [1, 4]: 1.8 mm
- Color and shape of mole No. 2, left ankle ([1]; Jan. 17, 2014 (after 210 days), vague border, Jun. 20, 2013: black circular): Light brown oval mole
- Diameter of mole No. 1, left ankle ([1]; Mar. 20, 2014 (after 272 days), Jun. 20, 2013: 3.7 mm): 1 mm
- Diameter of mole No. 1, left ankle ([1]; Mar. 20, 2014 (after 272 days), Jun. 20, 2013: 3.7 mm, listed as novel skin treatment agent): diameter of 1.0 mm.
- Diameter of mole No. 2, left ankle ([1]; Mar. 20, 2014 (after 272 days), Jun. 20, 2013: 3.9 mm): 2 mm
- Diameter of mole No. 2, left ankle ([1]; Mar. 20, 2014 (after 272 days), Jun. 20, 2013: 3.9 mm, listed as novel skin treatment agent): diameter of 2.0 mm with a vague
- Color and shape of mole No. 1, left ankle ([1]; Mar. 20, 2014 (after 272 days), Jun. 20, 2013: black circular): red circular shape
- Color and shape of mole No. 1, left ankle ([1]; Mar. 20, 2014 (after 272 days), Jun. 20, 2013: black circular, listed as novel skin treatment agent): Light red circular
- Color and shape of mole No. 4, left ankle ([1]; Mar. 20, 2014 (after 272 days), cell continues: shaped mole): only a trace of a faint line shape was observed
- Color and shape of mole No. 4, left ankle ([1]; Mar. 20, 2014 (after 272 days), cell continues: shaped mole, listed as novel skin treatment agent): Very light brown line-
- Color and shape of mole No. 2, left ankle [1, 5]: pale light brown circular mole
- Color and shape of mole No. 3, left ankle [1, 5]: blackish brown color and an almost rectangular shape
- Color and shape of mole No. 3, left ankle ([1]; Mar. 20, 2014 (after 272 days), vague border, Jun. 20, 2013: black circular, listed as novel skin treatment agent): Dark brown rectangular mole of
- Bald area, frontal region of the head (photograph (3)) [2, 6]: clearly reduced
- Bald area, region from the crown to the occipital region (photograph (4) vs (2)) [2, 6]: the bald area was reduced
- Hairs in the region from the crown to the occipital region [2, 6]: hairs were increased
- Hair in the frontal region of the head (photograph (3)) ([2]; Feb. 27, 2014 vs Sep. 16, 2010, oral cabergoline since Jun. 20, 2013, about 8 mg in total by Jan. 20, 2014): short black hairs were found in the previously bald region
